Measurements from PubChem BioAssay (NCI).
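Compound exposure: 48 hours, 5 concentrations, 96-well plates. GI50: concentration for 50% inhibition of growth. TGI marks complete inhibition of growth.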

How the values were obtained:
Assay in all cases: NCI anticancer screen, dose series, 48 h; in the data active = GI50 below about 0.43 µM; inactive = the rest
SK-MEL-2 melanoma = tested on: SK-MEL-2 melanoma
SF-539 CNS = tested on: SF-539 CNS
OVCAR-3 ovarian = tested on: OVCAR-3 ovarian
LOX IMVI melanoma = tested on: LOX IMVI melanoma
UACC-257 melanoma = tested on: UACC-257 melanoma
MCF7 breast = tested on: MCF7 breast
CAKI-1 renal = tested on: CAKI-1 renal
NCI/ADR-RES ovarian = tested on: NCI/ADR-RES ovarian
SF-295 CNS = tested on: SF-295 CNS
UACC-62 melanoma = tested on: UACC-62 melanoma
T-47D breast = tested on: T-47D breast
SF-268 CNS = tested on: SF-268 CNS
A549 NSCLC = tested on: A549 NSCLC
PC-3 prostate = tested on: PC-3 prostate
MDA-MB-231 breast = tested on: MDA-MB-231 breast
HCT-116 colon = tested on: HCT-116 colon
HOP-62 NSCLC = tested on: HOP-62 NSCLC
NCI-H226 lung = tested on: NCI-H226 lung
HCC-2998 colon = tested on: HCC-2998 colon
SK-MEL-5 melanoma = tested on: SK-MEL-5 melanoma
SK-OV-3 ovarian = tested on: SK-OV-3 ovarian
RXF 393 renal = tested on: RXF 393 renal
UO-31 renal = tested on: UO-31 renal
HCT-15 colon = tested on: HCT-15 colon
DU-145 prostate = tested on: DU-145 prostate
SNB-19 CNS = tested on: SNB-19 CNS
SR leukemia = tested on: SR leukemia
A498 renal = tested on: A498 renal
786-0 renal = tested on: 786-0 renal
NCI-H522 lung = tested on: NCI-H522 lung
NCI-H23 lung = tested on: NCI-H23 lung
SNB-75 CNS = tested on: SNB-75 CNS
RPMI-8226 leukemia = tested on: RPMI-8226 leukemia
TK-10 renal = tested on: TK-10 renal
BT-549 breast = tested on: BT-549 breast
OVCAR-4 ovarian = tested on: OVCAR-4 ovarian
HT29 colon = tested on: HT29 colon
HOP-92 NSCLC = tested on: HOP-92 NSCLC
COLO 205 colon = tested on: COLO 205 colon
HL-60(TB) leukemia = tested on: HL-60(TB) leukemia
OVCAR-8 ovarian = tested on: OVCAR-8 ovarian
IGROV1 ovarian = tested on: IGROV1 ovarian
OVCAR-5 ovarian = tested on: OVCAR-5 ovarian
SW-620 colon = tested on: SW-620 colon
M14 melanoma = tested on: M14 melanoma
HS 578T breast = tested on: HS 578T breast
ACHN renal = tested on: ACHN renal
K-562 leukemia = tested on: K-562 leukemia
CCRF-CEM leukemia = tested on: CCRF-CEM leukemia
NCI-H460 lung = tested on: NCI-H460 lung
U251 CNS = tested on: U251 CNS
MOLT-4 leukemia = tested on: MOLT-4 leukemia
EKVX NSCLC = tested on: EKVX NSCLC
MDA-MB-435 = tested on: MDA-MB-435
SK-MEL-28 melanoma = tested on: SK-MEL-28 melanoma
KM12 colon = tested on: KM12 colon
MALME-3M melanoma = tested on: MALME-3M melanoma
SN12C renal = tested on: SN12C renal

COc1cccc2c1O/C(=C\c1ccc([N+](=O)[O-])s1)C2=O
> 32.1 µM: TGI (HS 578T breast)
8.83 µM: TGI (TK-10 renal)
> 100 µM: TGI (SF-539 CNS) | TGI (LOX IMVI melanoma) | TGI (UACC-257 melanoma) | TGI (MCF7 breast) | TGI (CAKI-1 renal) | TGI (NCI/ADR-RES ovarian) | TGI (SF-295 CNS) | TGI (A549 NSCLC) | TGI (HCT-116 colon) | TGI (HOP-62 NSCLC) | TGI (NCI-H226 lung) | TGI (HCC-2998 colon) | TGI (SK-MEL-5 melanoma) | TGI (SK-OV-3 ovarian) | TGI (DU-145 prostate) | TGI (SNB-19 CNS) | TGI (A498 renal) | TGI (786-0 renal) | TGI (NCI-H23 lung) | TGI (OVCAR-4 ovarian) | TGI (COLO 205 colon) | TGI (HL-60(TB) leukemia) | TGI (OVCAR-5 ovarian) | TGI (M14 melanoma) | TGI (ACHN renal) | TGI (NCI-H460 lung)
2.34 µM: TGI (HCT-15 colon)
> 21.3 µM: TGI (PC-3 prostate)
> 24.9 µM: TGI (OVCAR-8 ovarian)
21.9 µM: TGI (HT29 colon)
2.92 µM: TGI (MDA-MB-231 breast)
> 20.6 µM: TGI (RPMI-8226 leukemia)
active: GI50 (SR leukemia) 0.279 µM | GI50 (NCI-H522 lung) 0.241 µM | GI50 (K-562 leukemia) 0.349 µM
4.53 µM: TGI (OVCAR-3 ovarian)
7.16 µM: TGI (T-47D breast)
5 µM: TGI (IGROV1 ovarian)
3.23 µM: TGI (UACC-62 melanoma)
4.72 µM: TGI (SF-268 CNS)
3.9 µM: TGI (UO-31 renal)
1.75 µM: TGI (SW-620 colon)
inactive: GI50 (SK-MEL-2 melanoma) 1.76 µM | GI50 (SF-539 CNS) 3.08 µM | GI50 (OVCAR-3 ovarian) 1.94 µM | GI50 (LOX IMVI melanoma) 3.15 µM | GI50 (UACC-257 melanoma) > 100 µM | GI50 (MCF7 breast) 2.04 µM | GI50 (CAKI-1 renal) > 100 µM | GI50 (NCI/ADR-RES ovarian) 3.92 µM | GI50 (SF-295 CNS) > 90.5 µM | GI50 (UACC-62 melanoma) 1.36 µM | GI50 (T-47D breast) 1.48 µM | GI50 (SF-268 CNS) 2.02 µM | GI50 (A549 NSCLC) 3.29 µM | GI50 (PC-3 prostate) 1.7 µM | GI50 (MDA-MB-231 breast) 1.25 µM | GI50 (HCT-116 colon) 2.04 µM | GI50 (NCI-H226 lung) > 80.6 µM | GI50 (HCC-2998 colon) 4 µM | GI50 (SK-MEL-5 melanoma) 2.49 µM | GI50 (SK-OV-3 ovarian) > 83.9 µM | GI50 (RXF 393 renal) 2.6 µM | GI50 (UO-31 renal) 1.08 µM | GI50 (HCT-15 colon) 0.474 µM | GI50 (DU-145 prostate) > 23.9 µM | GI50 (SNB-19 CNS) 4.21 µM | GI50 (A498 renal) > 100 µM | GI50 (786-0 renal) > 20.6 µM | GI50 (NCI-H23 lung) 3.15 µM | GI50 (SNB-75 CNS) 2.33 µM | GI50 (RPMI-8226 leukemia) 1.7 µM | GI50 (TK-10 renal) 3.16 µM | GI50 (BT-549 breast) 1.68 µM | GI50 (HT29 colon) 10.3 µM | GI50 (HOP-92 NSCLC) 1.18 µM | GI50 (COLO 205 colon) 5.15 µM | GI50 (HL-60(TB) leukemia) 2.53 µM | GI50 (OVCAR-8 ovarian) 2.54 µM | GI50 (IGROV1 ovarian) 1.91 µM | GI50 (OVCAR-5 ovarian) > 100 µM | GI50 (SW-620 colon) 0.46 µM | GI50 (M14 melanoma) 3.06 µM | GI50 (HS 578T breast) 2.99 µM | GI50 (ACHN renal) 2.79 µM | GI50 (CCRF-CEM leukemia) 1.25 µM | GI50 (NCI-H460 lung) 4.34 µM | GI50 (U251 CNS) 2.42 µM
> 32.5 µM: TGI (SNB-75 CNS)
> 20.3 µM: TGI (U251 CNS)
2.93 µM: TGI (SR leukemia)
> 25.3 µM: TGI (RXF 393 renal)
3.05 µM: TGI (K-562 leukemia)
3.27 µM: TGI (BT-549 breast)
0.766 µM: TGI (NCI-H522 lung)
> 23.4 µM: TGI (CCRF-CEM leukemia)
3.92 µM: TGI (SK-MEL-2 melanoma)
3.42 µM: TGI (HOP-92 NSCLC)

Cc1ccnc(NC(=S)Nc2ccc([N+](=O)[O-])cc2)c1
85.4 µM: TGI (SF-539 CNS)
> 100 µM: TGI (SK-MEL-2 melanoma) | TGI (LOX IMVI melanoma) | TGI (UACC-257 melanoma) | TGI (MCF7 breast) | TGI (MOLT-4 leukemia) | TGI (NCI/ADR-RES ovarian) | TGI (SF-295 CNS) | TGI (UACC-62 melanoma) | TGI (T-47D breast) | TGI (SF-268 CNS) | TGI (PC-3 prostate) | TGI (HCT-116 colon) | TGI (HOP-62 NSCLC) | TGI (NCI-H226 lung) | TGI (HCC-2998 colon) | TGI (EKVX NSCLC) | TGI (SK-MEL-5 melanoma) | TGI (SK-OV-3 ovarian) | TGI (MDA-MB-435) | TGI (RXF 393 renal) | TGI (UO-31 renal) | TGI (HCT-15 colon) | TGI (DU-145 prostate) | TGI (SNB-19 CNS) | TGI (SR leukemia) | TGI (786-0 renal) | TGI (NCI-H23 lung) | TGI (SNB-75 CNS) | TGI (SK-MEL-28 melanoma) | TGI (KM12 colon) | TGI (RPMI-8226 leukemia) | TGI (TK-10 renal) | TGI (BT-549 breast) | TGI (OVCAR-4 ovarian) | TGI (HT29 colon) | TGI (HOP-92 NSCLC) | TGI (HL-60(TB) leukemia) | TGI (OVCAR-8 ovarian) | TGI (IGROV1 ovarian) | TGI (SW-620 colon) | TGI (M14 melanoma) | TGI (ACHN renal) | TGI (K-562 leukemia) | TGI (CCRF-CEM leukemia) | TGI (NCI-H460 lung) | TGI (U251 CNS)
94.8 µM: TGI (HS 578T breast)

CNc1[nH]c(=S)nc2sc3c(c12)CCCC3
> 75 µM: TGI (SK-MEL-2 melanoma) | TGI (OVCAR-3 ovarian) | TGI (LOX IMVI melanoma) | TGI (UACC-257 melanoma) | TGI (MCF7 breast) | TGI (MOLT-4 leukemia) | TGI (CAKI-1 renal) | TGI (NCI/ADR-RES ovarian) | TGI (SF-295 CNS) | TGI (UACC-62 melanoma) | TGI (T-47D breast) | TGI (SF-268 CNS) | TGI (PC-3 prostate) | TGI (MDA-MB-231 breast) | TGI (HCT-116 colon) | TGI (HOP-62 NSCLC) | TGI (NCI-H226 lung) | TGI (HCC-2998 colon) | TGI (EKVX NSCLC) | TGI (SK-MEL-5 melanoma) | TGI (MDA-MB-435) | TGI (RXF 393 renal) | TGI (UO-31 renal) | TGI (HCT-15 colon) | TGI (DU-145 prostate) | TGI (SNB-19 CNS) | TGI (SR leukemia) | TGI (A498 renal) | TGI (786-0 renal) | TGI (NCI-H522 lung) | TGI (NCI-H23 lung) | TGI (SNB-75 CNS) | TGI (SK-MEL-28 melanoma) | TGI (KM12 colon) | TGI (RPMI-8226 leukemia) | TGI (TK-10 renal) | TGI (BT-549 breast) | TGI (OVCAR-4 ovarian) | TGI (HT29 colon) | TGI (MALME-3M melanoma) | TGI (COLO 205 colon) | TGI (HL-60(TB) leukemia) | TGI (OVCAR-8 ovarian) | TGI (IGROV1 ovarian) | TGI (OVCAR-5 ovarian) | TGI (SW-620 colon) | TGI (HS 578T breast) | TGI (ACHN renal) | TGI (K-562 leukemia) | TGI (SN12C renal) | TGI (U251 CNS)
